Results taken from PubChem BioAssay AID256 (DTP/NCI, 2004).
Several values for one entry are separate records, joined by “and”; a condition that tells them apart may be missing. Equal entries are not always repeated. Inconclusive results and toxic doses are left out. How the source made its calls: active means survival T/C of 150% or more; inactive means T/C below 125% in these data. Non-standard residues stand in square brackets, D forms with d. Residues, ends and D or L forms follow the SMILES beside them. ξ: configuration not given here. *: point of attachment. ξAsp(βξ-Me) = CC(C(=O)O)C(N)C(=O)O; X5 = CC(N*)C1NC(=O)C2CCCCN2C1=O; ξAbu(3ξ-NH2) = CC(N)C(N)C(=O)O; X4 = CCC(C)CCC/C=C/CC(=O)*

Tested on: CD2F1 mice, L1210 leukemia ip, survival T/C
Assay: NCI In Vivo Anticancer Drug Screen. Data for tumor model L1210 Leukemia (intraperitoneal) in CD2F1 (CDF1) mice
Conditions: higher = longer survival
Outline: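 In this screen, transplantable tumors were grown in mice given either the compound or its vehicle. Results were expressed as the treated measurement relative to the control measurement.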

[1] = endpoint: mean survival time, dose: 100.0 mg/kg/injection, schedule: Q01DX009 (ip), vehicle: saline with Tween-80
[2] = endpoint: mean survival time, dose: 100.0 mg/kg/injection, schedule: Q04DX003 (ip), vehicle: saline with Tween-80
[3] = endpoint: mean survival time, dose: 200.0 mg/kg/injection, schedule: Q01DX009 (ip), vehicle: saline with Tween-80
[4] = endpoint: mean survival time, dose: 200.0 mg/kg/injection, schedule: Q04DX003 (ip), vehicle: saline with Tween-80
[5] = endpoint: mean survival time, dose: 400.0 mg/kg/injection, schedule: Q01DX009 (ip), vehicle: saline with Tween-80
[6] = endpoint: mean survival time, dose: 12.5 mg/kg/injection, schedule: Q01DX009 (ip), vehicle: saline with Tween-80
[7] = endpoint: mean survival time, dose: 25.0 mg/kg/injection, schedule: Q01DX009 (ip), vehicle: saline with Tween-80
[8] = endpoint: mean survival time, dose: 50.0 mg/kg/injection, schedule: Q01DX009 (ip), vehicle: saline with Tween-80
[9] = endpoint: mean survival time, dose: 400.0 mg/kg/injection, schedule: Q04DX003 (ip), vehicle: saline with Tween-80
[10] = endpoint: mean survival time, dose: 6.25 mg/kg/injection, schedule: Q01DX009 (ip), vehicle: saline with Tween-80

Measured: T/C

CCCCCCCCCCSCC(N)C(=O)O (stereo not given)
inactive: endpoint: mean survival time, dose: 25.0 mg/kg/injection, schedule: Q01DX009 (ip), vehicle: other 88 % of control | endpoint: mean survival time, dose: 50.0 mg/kg/injection, schedule: Q01DX009 (ip), vehicle: other 88 % of control | endpoint: mean survival time, dose: 100.0 mg/kg/injection, schedule: Q01DX009 (ip), vehicle: other 94 % of control | endpoint: mean survival time, dose: 200.0 mg/kg/injection, schedule: Q01DX009 (ip), vehicle: other 94 % of control | endpoint: mean survival time, dose: 400.0 mg/kg/injection, schedule: Q01DX009 (ip), vehicle: other 97 % of control

COc1cc2ccc(CC(=S)N3CCOCC3)cc2cc1OC
inactive: [1] 98 % of control | [2] 104 % of control | [3] 93 % of control | [4] 95 % of control | [5] 96 % of control

O=[N+]([O-])c1cccc(N=NN2CCCC2)c1
inactive: [1] 101 % of control | [3] 92 % of control | [5] 87 % of control

O=C(Nc1ccc(Cl)c(Cl)c1)C(Cl)Cl
inactive: [6] 95 % of control | [7] 101 % of control | [8] 107 % of control

CN(C)c1ccc(N=Nc2cccnc2)cc1
inactive: endpoint: mean survival time, dose: 100.0 mg/kg/injection, schedule: Q01DX001 (ip), vehicle: saline with Tween-80 97 % of control | endpoint: mean survival time, dose: 200.0 mg/kg/injection, schedule: Q01DX001 (ip), vehicle: saline with Tween-80 97 % of control

CN1C(=O)C2C3CCC(C)(O3)C2C1=O (stereo not given)
inactive: [2] 98 % of control | [4] 96 % of control | [9] 98 % of control

CC(=O)NC1=CC(=O)C(C)=CC1=O
inactive: endpoint: mean survival time, dose: 5.0 mg/kg/injection, schedule: Q01DX001 (ip), vehicle: saline 98 % of control | endpoint: mean survival time, dose: 10.0 mg/kg/injection, schedule: Q01DX001 (ip), vehicle: saline 98 % of control

CC1NC(=O)OC12CCCCC2 (stereo not given)
inactive: [1] 101 % of control | [3] 107 % of control

Cc1ccc(NC(=O)NO)cc1
inactive: endpoint: mean survival time, dose: 4.0 mg/kg/injection, schedule: Q03HX024 (ip), vehicle: saline 95 % of control | endpoint: mean survival time, dose: 8.0 mg/kg/injection, schedule: Q03HX024 (ip), vehicle: saline 93 % of control | endpoint: mean survival time, dose: 16.0 mg/kg/injection, schedule: Q03HX024 (ip), vehicle: saline 101 % of control | endpoint: mean survival time, dose: 32.0 mg/kg/injection, schedule: Q03HX024 (ip), vehicle: saline 87 % of control | endpoint: mean survival time, dose: 62.0 mg/kg/injection, schedule: Q03HX024 (ip), vehicle: saline with Tween-80 97 % of control | endpoint: mean survival time, dose: 64.0 mg/kg/injection, schedule: Q03HX024 (ip), vehicle: saline 93 % of control | endpoint: mean survival time, dose: 93.0 mg/kg/injection, schedule: Q03HX024 (ip), vehicle: saline with Tween-80 99 % of control

O=C(CNC(=O)Nc1cccc([N+](=O)[O-])c1)N/N=C/C=C/c1ccccc1
inactive: [8] 88 % of control | [3] 88 % of control

COc1cc2c[n+](C)c3c4cc5c(cc4ccc3c2cc1OC)OCO5
inactive: endpoint: mean survival time, dose: 1.0 mg/kg/injection, schedule: Q01DX009 (ip), vehicle: other 104 % of control | endpoint: mean survival time, dose: 1.0 mg/kg/injection, schedule: Q01DX009 (ip), vehicle: water 102 % of control and 104 % of control | endpoint: mean survival time, dose: 2.0 mg/kg/injection, schedule: Q01DX009 (ip), vehicle: other 109 % of control | endpoint: mean survival time, dose: 2.0 mg/kg/injection, schedule: Q01DX009 (ip), vehicle: water 117 % of control and 112 % of control | endpoint: mean survival time, dose: 4.0 mg/kg/injection, schedule: Q01DX009 (ip), vehicle: other 104 % of control | endpoint: mean survival time, dose: 4.0 mg/kg/injection, schedule: Q01DX009 (ip), vehicle: water 116 % of control and 120 % of control | [10] 120 % of control | endpoint: mean survival time, dose: 8.0 mg/kg/injection, schedule: Q01DX009 (ip), vehicle: other 115 % of control | endpoint: mean survival time, dose: 8.0 mg/kg/injection, schedule: Q01DX009 (ip), vehicle: water 115 % of control and 121 % of control | endpoint: mean survival time, dose: 8.0 mg/kg/injection, schedule: Q04DX003 (ip), vehicle: water 108 % of control | [6] 114 % of control | endpoint: mean survival time, dose: 16.0 mg/kg/injection, schedule: Q01DX009 (ip), vehicle: other 116 % of control | endpoint: mean survival time, dose: 16.0 mg/kg/injection, schedule: Q01DX009 (ip), vehicle: water 118 % of control and 120 % of control | endpoint: mean survival time, dose: 16.0 mg/kg/injection, schedule: Q04DX003 (ip), vehicle: water 117 % of control | [7] 104 % of control | endpoint: mean survival time, dose: 32.0 mg/kg/injection, schedule: Q04DX003 (ip), vehicle: water 120 % of control | endpoint: mean survival time, dose: 40.0 mg/kg/injection, schedule: Q01DX009 (ip), vehicle: water 115 % of control and 116 % of control | [8] 98 % of control | endpoint: mean survival time, dose: 64.0 mg/kg/injection, schedule: Q04DX003 (ip), vehicle: water 121 % of control | endpoint: mean survival time, dose: 80.0 mg/kg/injection, schedule: Q01DX009 (ip), vehicle: water 103 % of control | endpoint: mean survival time, dose: 128.0 mg/kg/injection, schedule: Q04DX003 (ip), vehicle: water 101 % of control

FC1(F)C2Cc3ccccc3C2C1(Cl)Cl (stereo not given)
inactive: endpoint: mean survival time, dose: 75.0 mg/kg/injection, schedule: Q01DX001 (ip), vehicle: saline 103 % of control | endpoint: mean survival time, dose: 150.0 mg/kg/injection, schedule: Q01DX001 (ip), vehicle: saline 101 % of control | endpoint: mean survival time, dose: 300.0 mg/kg/injection, schedule: Q01DX001 (ip), vehicle: saline 100 % of control

CCOC(=O)C(O)c1ccccc1 (stereo not given)
inactive: [1] 101 % of control | [3] 96 % of control | [5] 93 % of control

CCC(C)CCC/C=C/CC(=O)NC(CC(=O)O)C(=O)NC(C(=O)NC(CC(=O)O)C(=O)NCC(=O)NC(CC(=O)O)C(=O)NCC(=O)NC(C(=O)NC(C(=O)N1CCCC1C(=O)NC(C)C1NC(=O)C2CCCCN2C1=O)C(C)C)C(C)N)C(C)C(=O)O (stereo not drawn) (X4-D[ξAsp(βξ-Me)]DGDG[ξAbu(3ξ-NH2)]VP-X5; configuration not given here)
inactive: endpoint: mean survival time, dose: 100.0 mg/kg/injection, schedule: Q01DX009 (ip), vehicle: saline + alcohol 93 % of control | endpoint: mean survival time, dose: 200.0 mg/kg/injection, schedule: Q01DX009 (ip), vehicle: saline + alcohol 87 % of control

COc1ccccc1/C=C\C(=O)C1COCN1 (stereo not given)
inactive: endpoint: mean survival time, dose: 37.5 mg/kg/injection, schedule: Q01DX009 (ip), vehicle: saline 98 % of control | endpoint: mean survival time, dose: 75.0 mg/kg/injection, schedule: Q01DX009 (ip), vehicle: saline 98 % of control | endpoint: mean survival time, dose: 150.0 mg/kg/injection, schedule: Q01DX009 (ip), vehicle: saline 98 % of control

CCC1(O)C(=O)OCc2c1cc1n(c2=O)Cc2cc3cc(Cl)ccc3nc2-1 (stereo not given)
active: endpoint: median survival time, dose: 5.0 mg/kg/injection, schedule: Q04DX002 (ip), vehicle: saline with Tween-80 196 % of control | endpoint: median survival time, dose: 10.0 mg/kg/injection, schedule: Q04DX002 (ip), vehicle: saline with Tween-80 264 % of control and 280 % of control
inactive: endpoint: median survival time, dose: 40.0 mg/kg/injection, schedule: Q04DX002 (ip), vehicle: saline with Tween-80 89 % of control

CCCC(=O)Nc1cc2c3c(c1)CCCN3CCC2
inactive: [10] 97 % of control | [6] 97 % of control | [7] 98 % of control

CCC(=O)Nc1ccc(C)c(Cl)c1
inactive: [1] 95 % of control | [2] 96 % of control | [3] 95 % of control | [4] 95 % of control | [5] 104 % of control | [9] 97 % of control

CCCCCCCCCCCOc1ccccc1Cl
inactive: endpoint: mean survival time, dose: 100.0 mg/kg/injection, schedule: Q04DX002 (ip), vehicle: saline with Tween-80 90 % of control | endpoint: mean survival time, dose: 200.0 mg/kg/injection, schedule: Q04DX002 (ip), vehicle: saline with Tween-80 93 % of control | endpoint: mean survival time, dose: 400.0 mg/kg/injection, schedule: Q04DX002 (ip), vehicle: saline with Tween-80 93 % of control

OC1CCCC2OC12 (stereo not given)
inactive: endpoint: mean survival time, dose: 100.0 mg/kg/injection, schedule: Q04DX003 (ip), vehicle: saline 93 % of control | endpoint: mean survival time, dose: 200.0 mg/kg/injection, schedule: Q04DX003 (ip), vehicle: saline 96 % of control | endpoint: mean survival time, dose: 400.0 mg/kg/injection, schedule: Q04DX003 (ip), vehicle: saline 93 % of control

O=S(=O)(O)SCC1NCCCN1
inactive: endpoint: mean survival time, dose: 12.5 mg/kg/injection, schedule: Q04DX002 (ip), vehicle: saline 108 % of control | endpoint: mean survival time, dose: 25.0 mg/kg/injection, schedule: Q04DX002 (ip), vehicle: saline 101 % of control | endpoint: mean survival time, dose: 50.0 mg/kg/injection, schedule: Q04DX002 (ip), vehicle: saline 101 % of control

C(=N\Nc1nc2ccccc2s1)/c1ccc(/C=N/Nc2nc3ccccc3s2)cc1
inactive: endpoint: mean survival time, dose: 100.0 mg/kg/injection, schedule: Q04DX003 (ip), vehicle: Klucel (hydroxypropylcellulose) (HPC) 92 % of control | endpoint: mean survival time, dose: 200.0 mg/kg/injection, schedule: Q04DX003 (ip), vehicle: Klucel (hydroxypropylcellulose) (HPC) 92 % of control | endpoint: mean survival time, dose: 400.0 mg/kg/injection, schedule: Q04DX003 (ip), vehicle: Klucel (hydroxypropylcellulose) (HPC) 94 % of control
